Assay results taken from article PMC12655819 (Pharmaceuticals, 2025).
Marks after values point to notes of the source that are not given here.

Key:
[1] = Pharmacokinetics from liquid (wet) saliva collected with Salivette (sMPA, sMPAG); assay type: in vivo, human
Description: (§1) The AUC0–4, Tmax, and Cmax parameters were calculated using the R (version 4.5.1) package software (R Core Team, 2025), supported by RStudio (version 2025.05.1+513) from Posit PBC software (Boston, MA, USA). […] The vMPA and vMPAG capillary blood levels were corrected using formulas validated in our department (partially published by Kocur et al.) and expressed as estimated capillary plasma concentrations. […] Individual PK profiles for each patient included in the study are provided in the Supplementary File (Figures S4 and S5).
The concentrations of sMPA and sMPAG in saliva were determined using a previously described LC-MS/MS method. Briefly, 100 µL of saliva was used for analysis. […] Samples were vortexed and evaporated to dryness. The dry residues were reconstituted in 100 μL of a mobile phase consisting of a 1:4 (v/v) mixture of methanol and water, both of which contained 0.1% formic acid. After double centrifugation, the samples were analyzed using a Shimadzu Ultra-Performance Liquid Chromatography (UPLC) system (Shimadzu Co., Kyoto, Japan) coupled with a triple quadrupole mass spectrometer (LCMS-8030; Simadzu Co., Kyoto, Japan). The method was linear over the concentration range of 2–500 μg/L for both sMPA and sMPAG. This part of the work was carried out with the support of the Centre of Innovative Pharmaceutical Technology, Poznan University of Medical Sciences (Poznan, Poland).
(§2) Additionally, the unstimulated saliva samples were simultaneously collected using the Salivette® device (Sarstedt, Nümbrecht, Germany) and Mitra™ 20 µL microsampling tips (Neoteryx/Trajan, Torrance, CA, USA (all saliva samples simultaneously to plasma and capillary blood sampling: 0, 0.5, 1, 2, and 4 h after drug administration). Patients had not eaten for at least 30 min before saliva collection, and their mouths were rinsed with water. The study was conducted in accordance with the Declaration of Helsinki and the International Council for Harmonization Guideline for Good Clinical Practice. The protocol was approved by the Bioethics Committee of the Children’s Memorial Health Institute, Warsaw, Poland (approval No. 15/KBE/2023, with subsequent amendments). Written informed consent was obtained from all participants and their legal guardians.

[2] = Pharmacokinetics from capillary blood collected with Mitra VAMS (vMPA, vMPAG); assay type: in vivo, human
Description: as §1
Subsequently, the tip (after at least 1 h of drying) was placed in an 1.5 mL Eppendorf-type test tube (Eppendorf AG, Hamburg, Germany) containing 150 μL of pure deionized water. Next, the test tube was shaken at room temperature for 1 h using the automatic rotary vortex. Subsequently, 10 μL of IS solution and 150 μL of the precipitation mixture were added. The sample was then processed as described in Section 4.3.4. Sample processing was carried out at the Department of Drug Chemistry, Pharmaceutical and Biomedical Analysis, Medical University of Warsaw, Poland [21].
(§3) From each patient (if they consented to all sampling types), four samples were collected simultaneously at all defined time points of the dynamic PK profile (0, 0.5, 1, 2, and 4 h after drug administration). Whole blood was collected using standard venipuncture by a phlebotomist into a K3-EDTA test tube (Sarstedt, Nümbrecht, Germany). Plasma for analytical determination was obtained by centrifuging a portion of the whole blood and stored at −40 °C until assay. At the same time, 10 µL capillary blood samples were collected from a finger prick using the Mitra™ device (VAMS samples were stored in light-protected aluminum zip bags with desiccant at room temperature).

[3] = cited from earlier work
[4] = Pharmacokinetics from total plasma levels (tMPA, tMPAG), LC-MS/MS; assay type: in vivo, human; settings: total plasma level
Description: as §1
Briefly, 50 μL of plasma was diluted with 90 μL of deionized water, and 10 μL of IS (d3-MPA) was added. Next, 400 μL of the precipitation mixture (a 0.1 M aqueous zinc sulfate solution and acetonitrile, 50:50 (v/v)) was added. The sample was then shaken for 10 min at room temperature using an automatic rotary vortex (Ohaus, Parsippany, NJ, USA) and centrifuged for 10 min at 13,500× g at 4 °C thereafter. The supernatant was transferred into chromatographic vials and analyzed using LC-MS/MS. Sample processing was performed at the Department of Drug Chemistry, Pharmaceutical and Biomedical Analysis, Medical University of Warsaw, Poland.
as §3

[5] = Pharmacokinetics from dried saliva collected with Mitra VAMS (vsMPA, vsMPAG); assay type: in vivo, human
Description: as §1
Samples were sonicated (36 °C, 30 min), vortexed (15 min), and frozen (−20 °C, 15 min). After centrifugation (10 min, 25,155× g), 350 µL of supernatant was transferred to a total recovery borosilicate vial (Finneran, Vineland, NJ, USA) and evaporated to dryness under a stream of nitrogen (40 °C) using Ultravap® Levante (Porvair, Hampshire, Great Britain). The residue was reconstituted in 150 µL of mobile phase A, filtered in a Verex™ vial, and 5 µL was injected into the LC–MS/MS system. Analyses were performed at the Department of Drug Chemistry, Pharmaceutical and Biomedical Analysis, Medical University of Warsaw, Poland.
as §2

[6] = wet saliva, pediatric renal transplant recipients (n = 20) on MMF, mean (range)
[7] = 0 h (pre-dose), n = 20, mean ± SD
[8] = 0.5 h post-dose, n = 20, mean ± SD
[9] = 1 h post-dose, n = 20, mean ± SD
[10] = 2 h post-dose, n = 20, mean ± SD
[11] = 4 h post-dose, n = 20, mean ± SD
[12] = normalized to MMF dose, n = 20, mean (range)
[13] = pediatric renal transplant recipients (n = 20) on MMF, mean (range)
[14] = dried saliva (Mitra VAMS), pediatric renal transplant recipients (n = 20) on MMF, mean (range)

Cmax ([1]; wet saliva (unstimulated, Salivette), pediatric renal transplant recipients (n = 20) on MMF, 0–4 h post-dose, mean (range)): 73.74 (22.00–146.00) µg/L
C0 concentration ([1]; wet saliva, 0 h (pre-dose), n = 20, mean ± SD): 19.135 ± 12.712 ng/mL
C0.5 concentration ([1]; wet saliva, 0.5 h post-dose, n = 20, mean ± SD): 39.659 ± 26.611 ng/mL
C1 concentration ([1]; wet saliva, 1 h post-dose, n = 20, mean ± SD): 70.173 ± 44.943 µg/L
C2 concentration ([1]; wet saliva, 2 h post-dose, n = 20, mean ± SD): 39.371 ± 25.210 µg/L
C4 concentration ([1]; wet saliva, 4 h post-dose, n = 20, mean ± SD): 22.417 ± 15.097 µg/L
AUC(0–4) Normalized to Drug Dose ([1]; wet saliva, normalized to MMF dose, n = 20, mean (range)): 352.10 (119.88–857.42) ^c µg × h/mL × g
AUC(0–4) [1, 6]: 158 ng·h/mL
Tmax [1, 6]: 1.08 (0.50–2.00) h
C0 concentration [2, 7]: 22481 ± 10350 ng/mL
C0.5 concentration [2, 8]: 34340 ± 14354 ng/mL
C1 concentration [2, 9]: 44.003 ± 20.520 mg/L
C2 concentration [2, 10]: 34.039 ± 12.356 mg/L
C4 concentration [2, 11]: 25.381 ± 11.908 mg/L
AUC(0–4) ([2]; corrected to estimated capillary plasma concentration, n = 20, mean (range)): 133000 ng·h/mL
Cmax ([2]; corrected to estimated capillary plasma concentration, pediatric renal transplant recipients (n = 20) on MMF, mean (range)): 47.73 (19.80–110.76) mg/L
AUC(0–4) Normalized to Drug Dose [2, 12]: 361.35 (100.49–1064.33) ^d mg × h/mL × g
Tmax [2, 13]: 1.38 (0.50–2.00) h
C0 concentration [4, 7]: 23805 ± 12320 ng/mL
C0.5 concentration [4, 8]: 37800 ± 17081 ng/mL
C1 concentration [4, 9]: 48.647 ± 22.134 mg/L
C2 concentration [4, 10]: 34.258 ± 13.977 mg/L
C4 concentration [4, 11]: 27.075 ± 12.413 mg/L
AUC(0–4) Normalized to Drug Dose [4, 12]: 384.94 (106.81–1050.08) ^d mg × h/mL × g
Cmax ([4]; pediatric renal transplant recipients (n = 20) on MMF (CellCept), steady state, 0–4 h post-dose, mean (range)): 49.54 (19.24–109.28) mg/L
AUC(0–4) [4, 13]: 144000 ng·h/mL
Tmax [4, 13]: 1.33 (0.50–2.00) h
Cmax ([5]; dried saliva (Mitra VAMS 20 µL), pediatric renal transplant recipients (n = 20) on MMF, 0–4 h post-dose, mean (range)): 70.30 (19.04–146.54) µg/L
C0 concentration ([5]; dried saliva (Mitra VAMS), 0 h (pre-dose), n = 20, mean ± SD): 17.834 ± 12.122 ng/mL
C0.5 concentration ([5]; dried saliva (Mitra VAMS), 0.5 h post-dose, n = 20, mean ± SD): 37.704 ± 24.598 ng/mL
C1 concentration ([5]; dried saliva (Mitra VAMS), 1 h post-dose, n = 20, mean ± SD): 67.422 ± 44.462 µg/L
C2 concentration ([5]; dried saliva (Mitra VAMS), 2 h post-dose, n = 20, mean ± SD): 39.258 ± 25.317 µg/L
C4 concentration ([5]; dried saliva (Mitra VAMS), 4 h post-dose, n = 20, mean ± SD): 19.762 ± 13.638 µg/L
AUC(0–4) Normalized to Drug Dose ([5]; dried saliva (Mitra VAMS), normalized to MMF dose, n = 20, mean (range)): 335.45 (115.15–902.00) ^c µg × h/mL × g
AUC(0–4) [5, 14]: 145 ng·h/mL
Tmax [5, 14]: 1.03 (0.50–2.00) h
SMILES: COc1c(C)c2c(c(O[C@@H]3O[C@H](C(=O)O)[C@@H](O)[C@H](O)[C@H]3O)c1C/C=C(\C)CCC(=O)O)C(=O)OC2 [MPAG, mycophenolic acid glucuronide]
increase of concentration in severe renal impairment ([3]; patients with severe renal impairment, up): 3–6 fold
time of peak plasma concentration after administration ([3]; plasma): 1 to 4 h
binding to albumin ([3]; stable transplant recipients): approximately 82%
